Experimental data taken from PubChem BioAssay (NCI).
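Cultured in 96-well plates, cells were exposed to test compound for 48 hours across five concentrations. At the GI50, growth is halved. The concentration for full growth arrest is given as TGI.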

Experiments:
Experiment in all cases: NCI anticancer screen, dose series, 48 h
[1] = tested on: SF-295 CNS
[2] = tested on: CAKI-1 renal
[3] = tested on: SR leukemia
[4] = tested on: SW-620 colon
[5] = tested on: KM12 colon
[6] = tested on: HT29 colon
[7] = tested on: 786-0 renal
[8] = tested on: IGROV1 ovarian
[9] = tested on: HS 578T breast
[10] = tested on: SK-MEL-5 melanoma
[11] = tested on: OVCAR-8 ovarian
[12] = tested on: SF-268 CNS
[13] = tested on: HOP-62 NSCLC
[14] = tested on: A549 NSCLC
[15] = tested on: HL-60(TB) leukemia
[16] = tested on: UACC-257 melanoma
[17] = tested on: LOX IMVI melanoma
[18] = tested on: DU-145 prostate
[19] = tested on: HOP-92 NSCLC
[20] = tested on: A498 renal
[21] = tested on: NCI-H23 lung
[22] = tested on: OVCAR-5 ovarian
[23] = tested on: HCC-2998 colon
[24] = tested on: OVCAR-4 ovarian
[25] = tested on: SK-OV-3 ovarian
[26] = tested on: SNB-75 CNS
[27] = tested on: SK-MEL-28 melanoma
[28] = tested on: NCI-H522 lung
[29] = tested on: MOLT-4 leukemia
[30] = tested on: NCI-H226 lung
[31] = tested on: SF-539 CNS
[32] = tested on: M14 melanoma
[33] = tested on: RXF 393 renal
[34] = tested on: UO-31 renal
[35] = tested on: HCT-116 colon
[36] = tested on: U251 CNS
[37] = tested on: MALME-3M melanoma
[38] = tested on: SN12C renal
[39] = tested on: TK-10 renal
[40] = tested on: PC-3 prostate
[41] = tested on: SNB-19 CNS
[42] = tested on: BT-549 breast
[43] = tested on: ACHN renal
[44] = tested on: NCI/ADR-RES ovarian
[45] = tested on: NCI-H460 lung
[46] = tested on: K-562 leukemia
[47] = tested on: SK-MEL-2 melanoma
[48] = tested on: MDA-MB-435
[49] = tested on: EKVX NSCLC
[50] = tested on: COLO 205 colon
[51] = tested on: RPMI-8226 leukemia
[52] = tested on: UACC-62 melanoma
[53] = tested on: MDA-MB-231 breast
[54] = tested on: HCT-15 colon

`CCc1ccc(SC2c3ccc(N(CC)CC)cc3Oc3nc(N)c(C#N)c(N)c32)cc1` (stereo not drawn) gave a GI50 [1] of 1760 nM, a TGI [1] of 3200 nM and a GI50 [2] of 1630 nM. It also gave a TGI [2] of 3000 nM, a GI50 [3] of 482 nM and a TGI [3] of over 100000 nM. For the same compound, the GI50 [4] was 1880 nM, the TGI [4] was 3510 nM and the GI50 [5] was 1580 nM. For the same compound, the TGI [5] was 3030 nM, the GI50 [6] was 2030 nM and the TGI [6] was 3760 nM. For the same compound, the GI50 [7] was 1740 nM, the TGI [7] was 3170 nM and the GI50 [8] was 1440 nM. It also gave a TGI [8] of 2890 nM, a GI50 [9] of 1760 nM and a TGI [9] of 4850 nM. It also gave a GI50 [10] of 1770 nM, a TGI [10] of 3170 nM and a GI50 [11] of 1710 nM. For the same compound, the TGI [11] was 3130 nM, the GI50 [12] was 1760 nM and the TGI [12] was 3270 nM. For the same compound, the GI50 [13] was 1830 nM, the TGI [13] was 3330 nM and the GI50 [14] was 1810 nM. For the same compound, the TGI [14] was 3320 nM, the GI50 [15] was 2590 nM and the TGI [15] was 8340 nM. The GI50 [16] was 1840 nM, the TGI [16] was 3280 nM and the GI50 [17] was 671 nM. It also gave a TGI [17] of 1970 nM, a GI50 [18] of 1860 nM and a TGI [18] of 3260 nM. For the same compound, the GI50 [19] was 1480 nM, the TGI [19] was 2840 nM and the GI50 [20] was 1630 nM. The TGI [20] was 3010 nM, the GI50 [21] was 1530 nM and the TGI [21] was 3030 nM. The GI50 [22] was 1800 nM, the TGI [22] was 3240 nM and the GI50 [23] was 1860 nM. For the same compound, the TGI [23] was 3390 nM, the GI50 [24] was 1700 nM and the TGI [24] was 3090 nM. The GI50 [25] was 1890 nM, the TGI [25] was 3340 nM and the GI50 [26] was 1500 nM. For the same compound, the TGI [26] was 2830 nM, the GI50 [27] was 1890 nM and the TGI [27] was 3310 nM. The GI50 [28] was 1780 nM, the TGI [28] was 3280 nM and the GI50 [29] was 2190 nM. The TGI [29] was over 100000 nM, the GI50 [30] was 2010 nM and the TGI [30] was 4520 nM. For the same compound, the GI50 [31] was 1660 nM, the TGI [31] was 3050 nM and the GI50 [32] was 1450 nM. For the same compound, the TGI [32] was 2830 nM, the GI50 [33] was 1580 nM and the TGI [33] was 2960 nM. It also gave a GI50 [34] of 1450 nM, a TGI [34] of 2760 nM and a GI50 [35] of 1130 nM. For the same compound, the TGI [35] was 2490 nM, the GI50 [36] was 1440 nM and the TGI [36] was 2820 nM. The GI50 [37] was 1750 nM, the TGI [37] was 3160 nM and the GI50 [38] was 1680 nM. It also gave a TGI [38] of 3130 nM, a GI50 [39] of 2750 nM and a TGI [39] of 4260 nM. The GI50 [40] was 1410 nM, the TGI [40] was 2900 nM and the GI50 [41] was 1690 nM. For the same compound, the TGI [41] was 3080 nM, the GI50 [42] was 1300 nM and the TGI [42] was 2590 nM. The GI50 [43] was 1670 nM, the TGI [43] was 3040 nM and the GI50 [44] was 2090 nM. The TGI [44] was 4960 nM, the GI50 [45] was 1840 nM and the TGI [45] was 3550 nM. It also gave a GI50 [46] of 3120 nM, a TGI [46] of over 100000 nM and a GI50 [47] of 1740 nM. It also gave a TGI [47] of 3170 nM, a GI50 [48] of 1680 nM and a TGI [48] of 3100 nM. The GI50 [49] was 710 nM, the TGI [49] was 2070 nM and the GI50 [50] was 1920 nM. It also gave a TGI [50] of 3510 nM, a GI50 [51] of 2180 nM and a TGI [51] of 6080 nM. It also gave a GI50 [52] of 1700 nM, a TGI [52] of 3130 nM and a GI50 [53] of 1630 nM. It also gave a TGI [53] of 3040 nM, a GI50 [54] of 1620 nM and a TGI [54] of 3340 nM.
